Values quoted from earlier work as cited in patent EP0548940B1, “Insecticidal compositions” (SUMITOMO CHEMICAL COMPANY LIMITED, priority 1991, dated 1993).

Details: at 25°C, water-diluted solution

For OB(O)O [Boric acid], the pKa value is listed as “Boric acid 4.8 (9.24)”.
In the case of O=C(O)CCCCCCCC(=O)O [Azelaic acid], the pKa value is listed as “Azelaic acid 4.8 (4.39)”.
